# Literature values as cited in patent US20180371365A1, “FABRIC SOFTENER COMPOSITIONS” (The Procter & Gamble Company, priority 2017, published 2018).
# Conditions: acidifying agents for compositions having pH 3.5 or greater
row,Compound,pKa
1,CCCCCCC(=O)O [heptanoic acid],5.1
2,OCl [hypochlorous acid],7.0
3,c1c[nH]cn1 [imidazole],7.0

# Continued, values first:
row,pKa,Compound
1,5.2,CCCCCCCCC(=O)O [nonanoic acid]
2,4.6,"O=C(O)C=Cc1ccc(O)cc1 [p-coumaric acid, 4-hydroxy cinnamic acid]"
3,5.0,C=CCCCCCCCCC(=O)O [undecylenic acid]
